Experimental data: patent publication US20240166626A1, “Compounds and Methods for Preventing, Treating, or Ameliorating Airway Disease” (THOMAS JEFFERSON UNIVERSITY, priority 2021, published 2024)

Target: β2AR-Gs (Homo sapiens, UniProt P07550)
Assay: Gs activation by [35S]GTPγS binding, reconstituted β2AR-Gs in lipid bicelles
Assay type: biochemical
Settings: 10 μM DFPQ, 1 μM ISO, FIG. 5E
Method: FIGS. 5A-5E illustrate certain embodiments of the disclosure. FIG. 5A: Primary titration screening data of DFPQ. […] FIGS. 5C and 5D: […] Wells were read every 2 min post agonist addition. FIG. 5E: […] Bound [^35S]-GTPγS was collected by rapid filtration on GF/B filters, washed 4 times with 4 ml of cold GTPγS wash buffer and analyzed by liquid scintillation. […]® ADRB2 cells (DiscoveRx) were maintained with the AssayCompleteTM Cell Culture kit (DiscoveRx catalog #92-[…]). […] HEK 293 cells stably overexpressing β2AR included 250 μg/ml G418. Cells were incubated at 37° C. in a humidified incubator with 5% CO2. […] Cells were read every three minutes for 18 minutes on a PolarStar Optima plate reader (BMG) to establish peak signal. […] Luminescence was determined at room temperature (23-25° C.) on a PolarStar Optima plate reader (BMG). […] Relative assay bias was calculated from the ratio of normalized cAMP and arrestin recruitment responses. […] BRET was measured using a Tecan Infinite F500 microplate reader. […] Bound [35 S]GTPγS was collected by rapid filtration on GF/B filters, washed 4 times with 4 ml of cold GTPγS wash buffer and analyzed by liquid scintillation counting. […] Immunoprecipitated proteins were separated by SDS-PAGE and analyzed by western blot using a β2AR C-terminal tail or phospho-specific antibody. […] Band intensity was measured by densitometry using ImageJ. […]

Chain of β2AR-Gs (P07550 whole entry): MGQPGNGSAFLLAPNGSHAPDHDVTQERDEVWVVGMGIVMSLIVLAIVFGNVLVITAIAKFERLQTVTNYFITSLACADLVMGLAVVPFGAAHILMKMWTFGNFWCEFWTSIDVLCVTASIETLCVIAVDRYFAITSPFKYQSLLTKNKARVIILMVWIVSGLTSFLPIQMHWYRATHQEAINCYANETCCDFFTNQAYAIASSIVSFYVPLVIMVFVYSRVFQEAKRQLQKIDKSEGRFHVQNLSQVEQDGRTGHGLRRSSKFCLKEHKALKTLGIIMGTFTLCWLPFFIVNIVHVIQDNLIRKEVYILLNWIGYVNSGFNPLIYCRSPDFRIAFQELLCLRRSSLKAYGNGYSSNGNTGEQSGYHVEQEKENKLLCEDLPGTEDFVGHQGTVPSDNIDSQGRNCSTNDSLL
Chain of β2AR-Gs (P63092 whole entry partner): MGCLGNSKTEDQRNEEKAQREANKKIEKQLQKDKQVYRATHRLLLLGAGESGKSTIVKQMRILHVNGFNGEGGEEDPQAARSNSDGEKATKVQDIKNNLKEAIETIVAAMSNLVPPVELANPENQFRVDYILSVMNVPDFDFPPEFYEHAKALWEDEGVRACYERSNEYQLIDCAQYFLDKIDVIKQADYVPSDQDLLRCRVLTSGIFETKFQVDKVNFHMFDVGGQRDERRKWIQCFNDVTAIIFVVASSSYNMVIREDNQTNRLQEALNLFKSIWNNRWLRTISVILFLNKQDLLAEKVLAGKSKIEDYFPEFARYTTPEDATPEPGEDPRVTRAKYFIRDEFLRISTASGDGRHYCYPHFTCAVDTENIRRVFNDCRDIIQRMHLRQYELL
Chain of β2AR-Gs (P62873 whole entry partner): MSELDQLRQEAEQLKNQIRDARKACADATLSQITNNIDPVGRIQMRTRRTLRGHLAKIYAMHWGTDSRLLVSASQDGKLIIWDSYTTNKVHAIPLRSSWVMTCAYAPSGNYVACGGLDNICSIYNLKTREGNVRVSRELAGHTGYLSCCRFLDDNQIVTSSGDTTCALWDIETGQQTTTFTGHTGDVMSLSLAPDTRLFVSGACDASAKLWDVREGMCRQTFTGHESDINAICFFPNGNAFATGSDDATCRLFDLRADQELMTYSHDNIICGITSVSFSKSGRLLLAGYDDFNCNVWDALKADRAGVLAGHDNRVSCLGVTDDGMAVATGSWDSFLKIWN
Chain of β2AR-Gs (P59768 2-68 partner): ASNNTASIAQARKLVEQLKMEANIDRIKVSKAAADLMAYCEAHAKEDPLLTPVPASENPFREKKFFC

effect on ISO-dependent activation of purified Gs by the β2AR (GTPγS binding): no effect
SMILES: Fc1ccc(Nc2nc(NC3CCCCC3)c3ccccc3n2)cc1F [DFPQ, N^4-cyclohexyl-N^2-(3,4-difluorophenyl)quinazoline-2,4-diamine]
